Paper PMC9503518, “Antibacterial and Antifungal Properties of a Novel Antimicrobial Peptide GK-19 and Its Application in Skin and Soft Tissue Infections Induced by MRSA or Candida albicans” (Pharmaceutics, 2022)
Where no end group is shown, it is not given here.

How the values were obtained:
[1] = test system: Candida albicans (C. albicans, ATCC90028); type: cell-based; details: 1 × 10^6 CFU/mL, PDB, 12 h, peptide 0-20 μM, absorbance at 600 nm, n = 5
Source text: (§1) Pseudomonas aeruginosa (P. aeruginosa, ATCC27853), Methicillin-Resistant Staphylococcus aureus (MRSA, 2104270609, clinically isolated strain), Escherichia coli (E. coli, ATCC25922), Klebsiella pneumoniae (K. pneumoniae, ATCC700603), Enterococcus faecalis (E. faecalis, ATCC29212), Candida krusei (C. krusei, ATCC6258), Candida albicans (C. albicans, ATCC90028), and Candida glabrata (C. glabrata, ATCCMYA-2950) were obtained from the First Affiliated Hospital of Xi’an Jiaotong University. Bacterial strains were cultured in MHA or MHB. Fungal strains were cultured in PDA or PDB.
(§2) Strains were incubated in MHB or PDB. After growing for 12–16 h at 37 °C, 200 rpm, 100 μL of 1 × 10^6 CFU/mL of the strains was seeded into 96-well plates and incubated with fresh culture medium containing various antimicrobial peptides (peptide concentration: 0, 0.5, 1.0, 2.0, 3.0, 5.0, 10, 15 or 20 μM) for 12 h. Each concentration was repeated five times. Absorbance at 600 nm was measured using the Multilabel Reader Varioskan Flash (Thermo Fisher). […] (1)

[2] = test system: Candida glabrata (C. glabrata, ATCCMYA-2950); type: cell-based; details: 1 × 10^6 CFU/mL, PDB, 12 h, peptide 0-20 μM, absorbance at 600 nm, n = 5
Source text: as §1, §2

[3] = test system: Candida krusei (C. krusei, ATCC6258); type: cell-based; details: 1 × 10^6 CFU/mL, PDB, 12 h, peptide 0-20 μM, absorbance at 600 nm, n = 5
Source text: as §1, §2

[4] = test system: Enterococcus faecalis (E. faecalis, ATCC29212); type: cell-based; details: 1 × 10^6 CFU/mL, MHB, 12 h, peptide 0-20 μM, absorbance at 600 nm, n = 5
Source text: as §1, §2

[5] = test system: Escherichia coli (E. coli, ATCC25922); type: cell-based; details: 1 × 10^6 CFU/mL, MHB, 12 h, peptide 0-20 μM, absorbance at 600 nm, n = 5
Source text: as §1, §2

[6] = test system: Klebsiella pneumoniae (K. pneumoniae, ATCC700603); type: cell-based; details: 1 × 10^6 CFU/mL, MHB, 12 h, peptide 0-20 μM, absorbance at 600 nm, n = 5
Source text: as §1, §2

[7] = test system: Methicillin-Resistant Staphylococcus aureus (MRSA, 2104270609, clinically isolated strain); type: cell-based; details: 1 × 10^6 CFU/mL, MHB, 12 h, peptide 0-20 μM, absorbance at 600 nm, n = 5
Source text: as §1, §2

[8] = test system: Pseudomonas aeruginosa (P. aeruginosa, ATCC27853); type: cell-based; details: 1 × 10^6 CFU/mL, MHB, 12 h, peptide 0-20 μM, absorbance at 600 nm, n = 5
Source text: as §1, §2

[9] = test system: Human umbilical vein endothelial cells (HUVECs)
Procedure: (§3) Rat pulmonary artery smooth muscle cells (RPASMCs, primary cells separated by our laboratory) and human keratinocytes cells (HaCaT cells, Mingjing Biology, Shanghai, China) were cultured in high-glucose Dulbecco’s Modified Eagle Medium (DMEM), supplemented with 10% fetal bovine serum (FBS). Human umbilical vein endothelial cells (HUVECs, BeNa Culture Collection, Kunshan City, China) were cultured in the MCDB131 medium supplemented with 20% FBS and growth factor additives. Human embryonic kidney cells (293, Procell Life Science & Technology Co., Ltd., Wuhan, China) were cultured in minimum Eagle’s medium (MEM) supplemented with 10% FBS. All cells were cultured at 37 °C, with 5% CO2. All animals used in this study were supplied by the Medical Animal Test Center of Xi’an Jiaotong University and study protocols were approved by the Institutional Animal Care and Use Committee of the Ethics Committee of Health Science Center, Xi’an Jiaotong University (Ethical approval code: 2017-609).
(§4) Cells were inoculated in 96-well plates at 5 × 10^3 cells/well and cultured at 37 °C under 5% CO2. The supernatant was removed, and the cells were washed three times with PBS. Next, 100 μL of fresh culture medium containing different antimicrobial peptides was added (peptide concentration: 0, 1.0, 2.0, 5.0, 10, 25, 50 and 100 μM). Each concentration was repeated five times. Then, 10 μL of CCK-8 reagent was added 48 h later, followed by another two hours of incubation. The absorbance at 450 nm was measured using the same Multilabel Reader. Cellular growth viability was calculated using the following equation:Viability (%) = (mean absorbance value of treatment group − mean absorbance value of blank group group)/(mean absorbance value of control group − mean absorbance value of blank group) × 100. (2)

[10] = test system: Rat pulmonary artery smooth muscle cells (RPASMCs)
Procedure: as §3, §4

[11] = test system: human keratinocytes cells (HaCaT cells)
Procedure: as §3, §4

GFLFKLIPKAIKKLISKFK [GK-19]
Minimum inhibitory concentration (MIC), C. albicans [1]: 10 µM | Minimum inhibitory concentration (MIC), C. glabrata [2]: 10 µM | Minimum inhibitory concentration (MIC), C. krusei [3]: 5 µM | Minimum inhibitory concentration (MIC), E. faecalis [4]: 3 µM | Minimum inhibitory concentration (MIC), E. coli [5]: 3 µM | Minimum inhibitory concentration (MIC), K. pneumoniae [6]: 5 µM | Minimum inhibitory concentration (MIC), MRSA [7]: 5 µM | Minimum inhibitory concentration (MIC), P. aeruginosa [8]: 5 µM | cytotoxicity at the effective antimicrobial concentration, HUVECs [9]: almost no apoptotic cells | cell viability, HUVECs ([9]; 100 µM): less than 20% | cytotoxicity at the effective antimicrobial concentration, RPASMCs [10]: almost no apoptotic cells | cell viability, RPASMCs ([10]; 100 µM): less than 20% | cytotoxicity at the effective antimicrobial concentration, HaCaT [11]: almost no apoptotic cells | cells surviving, HaCaT ([11]; 48 h, 100 μM): more than 42%
